Measured values reported in ChEMBL document CHEMBL1201862, “PubChem BioAssay data set” (2004).
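Results reflect a 48-hour exposure of cells in 96-well plates to compound at five concentrations. GI50 = concentration required for 50% inhibition of growth.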 Active and inactive are the calls of the source. No stated cut-off is given here; in the data, active = GI50 up to about 1.1 µM and inactive = higher.

Assays:
Experiment in all cases: NCI anticancer screen, dose series, 48 h
[1] = tested on: NCI-H460
[2] = tested on: SW-620
[3] = tested on: EKVX
[4] = tested on: HCT-15
[5] = tested on: UO-31
[6] = tested on: SNB-75
[7] = tested on: Malme-3M
[8] = tested on: RXF 393
[9] = tested on: OVCAR-8
[10] = tested on: U-251
[11] = tested on: SK-MEL-5
[12] = tested on: IGROV-1
[13] = tested on: SF-295
[14] = tested on: UACC-62
[15] = tested on: MCF7
[16] = tested on: HL-60
[17] = tested on: NCI/ADR-RES
[18] = tested on: PC-3
[19] = tested on: K562
[20] = tested on: MDA-MB-435

| Compound | GI50 [1] | GI50 [2] | GI50 [3] | GI50 [4] [µM] | GI50 [5] | GI50 [6] | GI50 [7] | GI50 [8] | GI50 [9] | GI50 [10] | GI50 [11] | GI50 [12] | GI50 [13] | GI50 [14] | GI50 [15] | GI50 [16] | GI50 [17] | GI50 [18] | GI50 [19] | GI50 [20] |
| --- | --- | --- | --- | --- | --- | --- | --- | --- | --- | --- | --- | --- | --- | --- | --- | --- | --- | --- | --- | --- |
| COc1ccc(C2C(C(=O)O)=C(CO)Oc3cc4c(cc32)OCO4)cc1 (stereo not drawn) | > 100 µM (inactive) | > 100 µM (inactive) | > 100 µM (inactive) | > 100 | > 100 µM (inactive) | 27.4 µM (inactive) | > 100 µM (inactive) | > 100 µM (inactive) | > 100 µM (inactive) | > 100 µM (inactive) | > 100 µM (inactive) | > 100 µM (inactive) | > 100 µM (inactive) | > 100 µM (inactive) |  |  |  |  |  |  |
| O=c1[nH]nc(NCc2ccccc2)c2nnn(Cc3ccccc3)c12 | > 100 µM (inactive) |  | > 100 µM (inactive) | > 100 | > 100 µM (inactive) |  | > 100 µM (inactive) |  | > 100 µM (inactive) | > 100 µM (inactive) | > 100 µM (inactive) |  | > 100 µM (inactive) |  | > 100 µM (inactive) | > 100 µM (inactive) | > 100 µM (inactive) | > 100 µM (inactive) | > 100 µM (inactive) | > 100 µM (inactive) |
| NC(CCOCCP(=O)(O)O)C(=O)O (stereo not drawn) | > 100 µM (inactive) | > 100 µM (inactive) | > 100 µM (inactive) | > 100 | > 100 µM (inactive) | > 100 µM (inactive) |  | > 100 µM (inactive) | > 100 µM (inactive) | > 100 µM (inactive) | > 100 µM (inactive) | > 100 µM (inactive) | > 100 µM (inactive) | 56.5 µM (inactive) | > 100 µM (inactive) | > 100 µM (inactive) | > 100 µM (inactive) | > 100 µM (inactive) | > 100 µM (inactive) | > 100 µM (inactive) |
